Measurements as given in patent US20220226272A1, “DIETARY BUTYRATE AND ITS USES” (SOCIETE DES PRODUITS NESTLE S.A., priority 2019, published 2022).

How the values were obtained:
[1] = test system: rabbit gastric lipase (RGL) followed by porcine pancreatic lipase (PPL); assay: Sequential in vitro digestion SGF followed by SIF, pH-stat; format: in vitro ADME
[2] = biological target: T1, porcine pancreatic lipase (PPL) (Sus scrofa, UniProt P00591); assay: In vitro digestion in simulated intestinal fluid (SIF), pH-stat; format: in vitro ADME; details: SIF alone; 200 mg fat emulsion, pH 6.8, 37° C.
T1 construct: by porcine pancreatic lipase (from pancreatin); purchased Sigma-Aldrich P7585; host or cells: porcine pancreas extract (pancreatin)
T1 sequence (P00591 1-450): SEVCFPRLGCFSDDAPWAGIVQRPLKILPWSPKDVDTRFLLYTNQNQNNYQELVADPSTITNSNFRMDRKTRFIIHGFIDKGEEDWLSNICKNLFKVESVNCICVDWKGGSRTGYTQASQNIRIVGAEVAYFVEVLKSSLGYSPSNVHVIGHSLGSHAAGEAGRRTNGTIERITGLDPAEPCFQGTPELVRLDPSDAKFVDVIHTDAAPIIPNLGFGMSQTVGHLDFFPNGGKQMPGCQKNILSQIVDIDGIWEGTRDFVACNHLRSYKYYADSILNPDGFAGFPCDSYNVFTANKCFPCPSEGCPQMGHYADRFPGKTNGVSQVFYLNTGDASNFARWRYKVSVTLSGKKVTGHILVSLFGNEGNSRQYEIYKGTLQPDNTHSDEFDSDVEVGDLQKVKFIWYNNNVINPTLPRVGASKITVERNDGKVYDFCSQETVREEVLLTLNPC
T1 sequence (P02703 23-112 partner): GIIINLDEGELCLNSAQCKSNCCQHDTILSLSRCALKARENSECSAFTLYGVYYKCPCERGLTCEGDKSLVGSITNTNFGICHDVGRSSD

- initial lipolysis rate in SIF compartment ([1]; SGF-SIF sequential digestion, 200 mg fat emulsion): 44.1 ± 8.8 µmol/min
- hydrolysis in the stomach (gastric lipolysis), in words ([1]; gastric compartment of the model): extensive hydrolysis
- lipolysis by gastric lipase ([1]; indicated by decreased total fatty acid release in SIF after RGL pre-exposure): ~60%
- initial rate of lipolysis [2]: 223 ± 59 µmol/min
Compound: CCCC(=O)OCC(COC(=O)CCC)OC(=O)CCC [tributyrin]
